Tests used:
Format in all cases: cell-based, human
HCT-116 cells [1] = assay: Inhibition assay of cancer cell sphere-forming ability (Test Example 2), HCT-116; settings: read-out: IC50 (μM) HCT, concentration for 50% inhibition of cell proliferation (Sphere IC50 value)
Protocol: (§1) HCT-116 cells (derived from human colon adenocarcinoma), HT-29 cells (derived from human colon cancer), FaDu cells (derived from human hypopharynx cancer) were obtained from American Type Culture Collection (ATCC). […] HCT-116 cells, HT-29 cells, and FaDu cells were seeded onto 384 Well Black Clear Bottom Ultra-Low Attachment Microplate (Corning Cat. […] A test substance was added so that the final concentration of DMSO is 0.1%, and then cultured for 4 days. […] A test shown in Test example 2 was carried out for compounds obtained in the Examples.

FaDu cells [2] = assay: Proliferation inhibition assay of cancer cells (Test Example 1), FaDu; settings: read-out: IC50 (μM) FaDu, concentration for 50% inhibition of cell proliferation (Bulk IC50 value)
Protocol: (§2) HCT-116 cells (derived from human colon adenocarcinoma), HT-29 cells (derived from human colon cancer), and FaDu cells (derived from human hypopharynx cancer) were obtained from American Type Culture Collection (ATCC). […] After cells were seeded at 300-600 cells/well onto black μClear-plate 384 well (Greiner bio-one Cat. No. 781091), a test substance was added such that the final concentration of DMSO is 0.1%, and cultured for 4 days. […] A test shown in Test example 1 was carried out for compounds obtained in the Examples.

HCT-116 cells [3] = assay: Proliferation inhibition assay of cancer cells (Test Example 1), HCT-116; settings: read-out: IC50 (μM) HCT, concentration for 50% inhibition of cell proliferation (Bulk IC50 value)
Protocol: as §2

HT-29 cells [4] = assay: Inhibition assay of cancer cell sphere-forming ability (Test Example 2), HT-29; settings: read-out: IC50 (μM) HT, concentration for 50% inhibition of cell proliferation (Sphere IC50 value)
Protocol: as §1

HT-29 cells [5] = assay: Proliferation inhibition assay of cancer cells (Test Example 1), HT-29; settings: read-out: IC50 (μM) HT, concentration for 50% inhibition of cell proliferation (Bulk IC50 value)
Protocol: as §2

FaDu cells [6] = assay: Inhibition assay of cancer cell sphere-forming ability (Test Example 2), FaDu; settings: read-out: IC50 (μM) FaDu, concentration for 50% inhibition of cell proliferation (Sphere IC50 value)
Protocol: as §1

[7] = Homo sapiens, HCT-116, 96 h, HCT-116 cells, Ultra-Low Attachment plate, serum-free DMEM/F12 with B27, EGF, bFGF, insulin, 4 days, Cell Titer-Glo
[8] = Homo sapiens, FaDu, 96 h, FaDu cells, cultured for 4 days, Cell Titer-Glo
[9] = Homo sapiens, HCT-116, 96 h, HCT-116 cells, cultured for 4 days, Cell Titer-Glo
[10] = Homo sapiens, HT-29, 96 h, HT-29 cells, Ultra-Low Attachment plate, serum-free DMEM/F12 with B27, EGF, bFGF, insulin, 4 days, Cell Titer-Glo
[11] = Homo sapiens, HT-29, 96 h, HT-29 cells, cultured for 4 days, Cell Titer-Glo
[12] = Homo sapiens, FaDu, 96 h, FaDu cells, Ultra-Low Attachment plate, serum-free DMEM/F12 with B27, EGF, bFGF, insulin, 4 days, Cell Titer-Glo

Row | SMILES | IC50 (HCT-116 cells [1]; [7]) [µM] | IC50 (FaDu cells [2]; [8]) [µM] | IC50 (HCT-116 cells [3]; [9]) [µM] | IC50 (HT-29 cells [4]; [10]) [µM] | IC50 (HT-29 cells [5]; [11]) [µM] | IC50 (FaDu cells [6]; [12]) [µM] | other results
1 | O=C1c2cnccc2C(=O)c2sc(COCc3ccccc3)cc21 [Example 18, 2-[(benzyloxy)methyl]thieno[2,3-g]isoquinoline-4,9-dione] | 5.71 | 0.57 | 1 | > 10 | > 10 | 0.63 | 
2 | O=C(NCC(F)F)c1cc2c(s1)C(=O)c1ncccc1C2=O [Example 40, N-(2,2-difluoroethyl)-4,9-dioxo-4,9-dihydroxythieno[3,2-g]quinoline-2-carboxyamide] |  |  |  |  |  |  | IC50 (HCT-116 cells [1]; HCT-116 cells, Ultra-Low Attachment plate, serum-free DMEM/F12 with B27, EGF, bFGF, insulin, 4 days, Cell Titer-Glo): 0.08 µM; IC50 (FaDu cells [2]; FaDu cells, cultured for 4 days, Cell Titer-Glo): 0.05 µM; IC50 (HCT-116 cells [3]; HCT-116 cells, cultured for 4 days, Cell Titer-Glo): 0.07 µM; IC50 (HT-29 cells [4]; HT-29 cells, Ultra-Low Attachment plate, serum-free DMEM/F12 with B27, EGF, bFGF, insulin, 4 days, Cell Titer-Glo): 0.51 µM; IC50 (HT-29 cells [5]; HT-29 cells, cultured for 4 days, Cell Titer-Glo): 0.55 µM; IC50 (FaDu cells [6]; FaDu cells, Ultra-Low Attachment plate, serum-free DMEM/F12 with B27, EGF, bFGF, insulin, 4 days, Cell Titer-Glo): 0.05 µM
3 | CC(c1cc2c(s1)C(=O)c1ccncc1C2=O)N1CCOCC1 (stereo not drawn) [Example 23, 2-[1-(morpholin-4-yl)ethyl]thieno[2,3-g]isoquinoline-4,9-dione] | 0.31 | 0.03 | 0.1 | 0.48 | 0.58 | 0.04 | 
4 | O=C1c2cc(C(=O)N3CCOCC3)sc2C(=O)c2nccnc21 [Example 57, 7-(morpholin-4-ylcarbonyl)thieno[2,3-g]quinoxaline-5,9-dione] | 4.97 | 8.21 | 5.71 | > 10 | > 10 | 5.65 | 
5 | CCN(Cc1cc2c(s1)C(=O)c1ccncc1C2=O)C1CCCCC1 [Example 25, 2-{[Cyclohexyl(ethyl)amino]methyl}thieno[2,3-g]isoquinoline-4,9-dione] | 0.8 | 0.46 | 0.69 | < 0.01 | 0.96 | 0.06 | 
6 | CC(=O)c1cc2c(o1)C(=O)c1cccnc1C2=O [Example 42, 2-acetylfuro[2,3-g]quinoline-4,9-dione] | 0.31 | 0.47 | 0.54 | 0.59 | 0.72 | 0.08 | 
7 | CC(=O)c1cc2c(o1)C(=O)c1sccc1C2=O [Example 52, 2-acetylthieno[3,2-f][1]benzofuran-4,8-dione] | 0.05 | 0.43 | 0.07 | 0.08 | 0.64 | 0.06 | 
8 | CC(O)c1cc2c(o1)C(=O)c1sccc1C2=O (stereo not drawn) [Example 53, 2-(1-hydroxyethyl)thieno[3,2-f][1]benzofuran-4,8-dione] | 0.56 | 0.64 | 0.55 | 0.59 | 0.68 | 0.45 | 
9 | CC(=O)c1cc2c(o1)C(=O)c1ccsc1C2=O [Example 56, 2-acetylthieno[2,3-f][1]benzofuran-4,8-dione] | 0.06 | 0.56 | 0.09 | 0.58 | 0.62 | 0.08 | 
10 | CC(C)(C)OC(=O)NCc1cc2c(s1)C(=O)c1ncccc1C2=O [Example 41, tert-butyl (4,9-dioxo-4,9-dihydrothieno[3,2-g]quinolin-2-yl)methylcarbamate] | 0.83 | 0.78 | 0.7 | 3.82 | 4.52 | 0.46 | 
11 | O=C1c2cc(CN3CCOCC3)sc2C(=O)c2nccnc21 [Example 59, 7-(morpholin-4-ylmethyl)thieno[2,3-g]quinoxaline-5,9-dione] | 0.05 | 0.36 | 0.28 | 0.63 | 0.84 | 0.06 | 
12 | CC(O)c1cc2c(s1)C(=O)c1cccnc1C2=O (stereo not drawn) [Example 2, 2-(1-hydroxyethyl)thieno[2,3-g]quinoline-4,9-dione] | 0.23 | 0.1 | 0.08 | 0.55 | 0.86 | 0.12 | 
13 | O=C1c2cc(CN3CCOCC3)sc2C(=O)c2cccnc21 [Example 4, 2-(morpholin-4-ylmethyl)thieno[2,3-g]quinoline-4,9-dione] | 0.55 | 0.46 | 0.57 | 0.63 | 0.68 | 0.34 | 
14 | CN(C)C(=O)c1cc2c(s1)C(=O)c1cccnc1C2=O [Example 3, N,N-dimethyl-4,9-dioxo-4,9-dihydrothieno[2,3-g]quinoline-2-carboxamide] | 0.05 | 0.07 | 0.06 | 0.43 | 0.56 | 0.05 | 
15 | CC(=O)c1cc2c(o1)C(=O)c1cnccc1C2=O [Example 48, 2-acetylfuro[3,2-g]isoquinoline-4,9-dione] | 0.07 | 0.06 | 0.07 | 0.55 | 0.62 | 0.05 | 
16 | O=C1c2ccncc2C(=O)c2sc(CNCC(F)F)cc21 [Example 35, 2-{[(2,2-Difluoroethyl)amino]methyl}thieno[3,2-g]isoquinoline-4,9-dione] |  |  |  |  |  |  | IC50 (HCT-116 cells [1]; Homo sapiens, HCT-116, 96 h): 0.27 µM; IC50 (FaDu cells [2]; Homo sapiens, FaDu, 96 h): 0.05 µM; IC50 (HCT-116 cells [3]; Homo sapiens, HCT-116, 96 h): 0.08 µM; IC50 (HT-29 cells [4]; Homo sapiens, HT-29, 96 h): 0.39 µM; IC50 (HT-29 cells [5]; Homo sapiens, HT-29, 96 h): 0.6 µM; IC50 (FaDu cells [6]; Homo sapiens, FaDu, 96 h): 0.04 µM
17 | O=C1c2ccncc2C(=O)c2c(C(=O)N3CCOCC3)csc21 [Example 22, 3-(morpholin-4-ylcarbonyl)thieno[2,3-g]isoquinoline-4,9-dione] | 0.5 | 0.44 | 0.48 | 0.16 | 0.81 | 0.31 | 
18 | CC(C)(O)c1cc2c(o1)C(=O)c1sccc1C2=O [Example 54, 2-(2-hydroxypropan-2-yl)thieno[3,2-f][1]benzofuran-4,8-dione] | 0.6 | 0.67 | 0.61 | 0.77 | 2.47 | 0.59 | 
19 | CCOC(c1cc2c(s1)C(=O)c1ccncc1C2=O)C1CC1 (stereo not drawn) [Example 17, 2-[cyclopropyl(ethoxy)methyl]thieno[2,3-g]isoquinoline-4,9-dione] | 0.55 | 0.84 | 0.41 | 0.54 | 0.87 | 0.05 | 
20 | COc1c2ccncc2c(OC)c2sc(C(C)O)cc12 (stereo not drawn) [Example 34, 1-(4,9-dimethoxythieno[3,2-g]isoquinolin-2-yl)ethanol] | 0.24 | 0.04 | 0.07 | 0.5 | 0.64 | 0.04 | 
21 | CCOC(=O)N(CC)Cc1cc2c(o1)C(=O)c1cccnc1C2=O [Example 11, ethyl [(4,9-dioxo-4,9-dihydrofuro[2,3-g]quinolin-2-yl)methyl]ethylcarbamate] | 0.46 | 0.45 | 0.49 | 0.71 | 3.85 | 0.28 | 

— US10934309B2, “Tricyclic quinone derivative” (Boston Biomedical, Inc., priority 2014, dated 2021)
